Laboratory results from US10793547B2, “Modulator of the cystic fibrosis transmembrane conductance regulator, pharmaceutical compositions, methods of treatment, and process for making the modulator” (Vertex Pharmaceuticals Incorporated, priority 2016, dated 2020).
pEC50: −log10 of the molar value.

Experiments:
human PXR = target: T1, human PXR (Homo sapiens, UniProt O75469); experiment: PXR assay: PXR mediated CYP3A4 induction in DPX-2 cell line; assay type: cell-based; conditions: DPX-2 cells
T1 construct: host or cells: DPX-2 cell line (derived from HepG2)
T1 sequence (O75469 1-434): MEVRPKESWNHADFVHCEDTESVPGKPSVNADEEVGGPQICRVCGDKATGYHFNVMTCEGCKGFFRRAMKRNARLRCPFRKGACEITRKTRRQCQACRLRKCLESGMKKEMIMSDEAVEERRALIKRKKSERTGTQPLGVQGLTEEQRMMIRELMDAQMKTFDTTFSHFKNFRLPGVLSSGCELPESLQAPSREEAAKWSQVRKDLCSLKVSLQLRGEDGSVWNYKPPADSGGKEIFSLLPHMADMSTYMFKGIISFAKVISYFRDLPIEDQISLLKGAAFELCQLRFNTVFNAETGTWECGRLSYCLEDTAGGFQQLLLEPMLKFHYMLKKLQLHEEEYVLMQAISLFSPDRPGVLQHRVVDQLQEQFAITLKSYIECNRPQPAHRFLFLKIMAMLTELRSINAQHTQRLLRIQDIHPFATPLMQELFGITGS
Experimental: D. Experimental Protocol for PXR Assay
The propensity for PXR mediated CYP3A4 induction is assessed using the DPX-2 cell line in vitro. This cell line, which has been licensed from Puracyp Inc. was derived from HepG2 cells and has been stably transfected with genes encoding human PXR as well as a modified luciferase reporter linked to the CYP3A4 promoter region and related distal and proximal enhancers.
The assay is run in 384 well format and each test article is administered in 11 doses ranging from 0.1 to 60 μM. On day 1, DPX-2 cells which have previously been expanded in-house and cryopreserved are thawed and seeded in tissue culture plates. The following day, media is changed and cells are cultured in media containing test article, vehicle control or the positive control compound, the clinically validated CYP3A4 inducer rifampicin. Cells are cultured in the presence of test article for 48 hours and then cell viability is assessed using fluorescence based assay (Cell Titer-Fluor, Promega) with an EnVision Plate Reader (PerkinElmer). Subsequently, CYP3A4 transactivation, which is proportional to luciferase activity, is measured by reading luminescense using the Promega One-Glo reagent system using the same plate reader.
Data processing within the Genedata software package allows reporting of max fold induction compared to vehicle control, an EC50 value for CYP3A4 inducers and an 11 point-dose response curve.

F508del-CFTR = target: T2, F508del-CFTR (Homo sapiens, UniProt P13569, DEL508-508); experiment: Membrane potential optical (FLIPR) assay for F508del-CFTR modulators in NIH 3T3 cells; assay type: cell-based; conditions: NIH 3T3 cells expressing F508del; assay A1; read-out: CFTRdF508 Cor 3T3 FLIPR 384 CFTRdF508 MP 3T3 770 EC50
T2 construct: expressed in transfected cells
From the text: Membrane Potential Optical Methods for Assaying Properties of F508del-CFTR Modulators
The assay utilizes fluorescent voltage sensing dyes to measure changes in membrane potential using a fluorescent plate reader (e.g., FLIPR III, Molecular Devices, Inc.) as a readout for increase in functional F508del in NIH 3T3 cells. The driving force for the response is the creation of a chloride ion gradient in conjunction with channel activation and concurrent with compound treatment by a single liquid addition step after the cells have previously been loaded with a voltage sensing dye.
A1. Identification of F508del-CFTR Modulators
To identify modulators of F508del, a fluorescence based HTS assay format was developed. This HTS assay utilizes fluorescent voltage sensing dyes to measure changes in membrane potential on the FLIPR III as a measurement for increase in gating (conductance) of F508del NIH 3T3 cells. The driving force for the response is the creation of a chloride ion gradient in conjunction with channel activation and concurrent with compound treatment by a single liquid addition step after the cells have previously been loaded with a voltage sensing dye.
Bath Solution #1: (in mM) NaCl 160, KCl 4.5, CaCl2 2, MgCl2 1, HEPES 10, pH 7.4 with NaOH, Glucose 10.
Chloride-free bath solution: Chloride salts in Bath Solution #1 (above) are substituted with gluconate salts.
NIH3T3 mouse fibroblasts stably expressing F508del were used for optical measurements of membrane potential. The cells were maintained at 37° C. in 5% CO2 and 90% humidity in Dulbecco's modified Eagle's medium supplemented with 2 mM glutamine, 10% fetal bovine serum, 1×NEAA, β-ME, 1× pen/strep, and 25 mM HEPES in 175 cm^2 culture flasks. For all optical assays, the cells were seeded at 12,000 cells/well in 384-well matrigel-coated plates and cultured for 18-24 hrs at 37° C. for the potentiator assay. For the correction assay, the cells were cultured at 37° C. with and without compounds for 18-24 hours.

[1] = MDCK-Wild Type permeability, 96 well + 0.1% BSA; assay type: in vitro ADME; conditions: dog, MDCK, A-B direction, read-out: MDCK-Wild Type-Permeability 96 well + 0.1% BSA Papp compound (A-B)

T2 sequence (P13569 with tags, fused parts or gaps DEL508-508): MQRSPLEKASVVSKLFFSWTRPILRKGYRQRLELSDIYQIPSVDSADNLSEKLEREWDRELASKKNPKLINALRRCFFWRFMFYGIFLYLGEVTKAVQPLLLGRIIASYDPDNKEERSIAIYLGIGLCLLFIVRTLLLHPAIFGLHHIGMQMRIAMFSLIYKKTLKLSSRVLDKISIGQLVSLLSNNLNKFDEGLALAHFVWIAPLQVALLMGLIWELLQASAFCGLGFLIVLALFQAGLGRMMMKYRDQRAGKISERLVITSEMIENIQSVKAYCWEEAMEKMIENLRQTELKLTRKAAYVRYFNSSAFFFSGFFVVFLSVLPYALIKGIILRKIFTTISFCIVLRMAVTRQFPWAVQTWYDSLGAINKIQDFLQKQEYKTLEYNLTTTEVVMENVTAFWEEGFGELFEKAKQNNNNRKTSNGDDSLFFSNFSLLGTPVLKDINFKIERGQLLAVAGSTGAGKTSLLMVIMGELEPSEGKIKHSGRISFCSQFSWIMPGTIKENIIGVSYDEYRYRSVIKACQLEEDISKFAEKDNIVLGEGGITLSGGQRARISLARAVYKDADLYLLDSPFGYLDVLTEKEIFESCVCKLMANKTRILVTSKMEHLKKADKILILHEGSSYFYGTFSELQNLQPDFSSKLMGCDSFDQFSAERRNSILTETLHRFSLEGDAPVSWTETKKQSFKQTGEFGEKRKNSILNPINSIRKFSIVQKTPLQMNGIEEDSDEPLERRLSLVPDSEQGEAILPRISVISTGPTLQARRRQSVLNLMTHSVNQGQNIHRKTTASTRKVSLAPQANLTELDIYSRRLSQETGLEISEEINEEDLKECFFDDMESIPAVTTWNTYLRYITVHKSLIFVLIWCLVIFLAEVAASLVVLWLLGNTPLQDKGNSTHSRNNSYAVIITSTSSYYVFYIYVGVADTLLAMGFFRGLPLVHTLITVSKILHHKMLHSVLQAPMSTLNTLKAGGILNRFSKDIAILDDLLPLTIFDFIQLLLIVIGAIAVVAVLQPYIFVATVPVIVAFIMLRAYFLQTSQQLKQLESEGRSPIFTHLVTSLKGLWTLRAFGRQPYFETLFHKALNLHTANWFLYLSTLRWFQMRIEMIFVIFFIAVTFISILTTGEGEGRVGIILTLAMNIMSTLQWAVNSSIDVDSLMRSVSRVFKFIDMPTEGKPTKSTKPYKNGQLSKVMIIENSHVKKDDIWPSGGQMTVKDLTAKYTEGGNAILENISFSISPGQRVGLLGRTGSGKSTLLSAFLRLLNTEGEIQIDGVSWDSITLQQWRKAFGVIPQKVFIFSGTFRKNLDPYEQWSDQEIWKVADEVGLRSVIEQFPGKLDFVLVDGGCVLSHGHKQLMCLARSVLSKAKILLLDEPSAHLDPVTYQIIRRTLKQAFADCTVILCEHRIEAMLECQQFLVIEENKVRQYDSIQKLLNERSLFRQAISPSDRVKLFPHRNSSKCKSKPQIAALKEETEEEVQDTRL

| Structure (SMILES) | CYP3A4 Induction-PXR human PXR internal Max % Activity (human PXR) | pEC50 (F508del-CFTR) | Papp A→B [1] |
| --- | --- | --- | --- |
| Cc1nn(C)cc1S(=O)(=O)NC(=O)c1ccc(-n2ccc(OCC3(C(F)(F)F)CC3)n2)nc1N1CC(C(C)(C)C)CC1(C)C (racemic) [Compound 40, 2-(4-tert-Butyl-2,2-dimethyl-pyrrolidin-1-yl)-N-(1,3-dimethylpyrazol-4-yl)sulfonyl-6-[3-[[1-(trifluoromethyl)cyclopropyl]methoxy]pyrazol-1-yl]pyridine-3-carboxamide] | 13% | 7.10 |  |
| Cc1nn(C)cc1S(=O)(=O)NC(=O)c1ccc(-n2ccc(OCC3(C(F)(F)F)CC3)n2)nc1N1CC(C(C)C)CC1(C)C (racemic) [Compound 41, N-(1,3-dimethylpyrazol-4-yl)sulfonyl-2-(4-isopropyl-2,2-dimethyl-pyrrolidin-1-yl)-6-[3-[[1-(trifluoromethyl)cyclopropyl]methoxy]pyrazol-1-yl]pyridine-3-carboxamide] | 4% | 6.92 |  |
| Cc1nn(C)cc1S(=O)(=O)NC(=O)c1ccc(-n2ccc(OCC3(C(F)(F)F)CC3)n2)nc1N1CC(C(C)(C)C)CC1(C)C (single isomer, unassigned) [Compound 53, 2-(4-tert-butyl-2,2-dimethyl-pyrrolidin-1-yl)-N-(1,3-dimethylpyrazol-4-yl)sulfonyl-6-[3-[[1-(trifluoromethyl)cyclopropyl]methoxy]pyrazol-1-yl]pyridine-3-carboxamide] | 7% | 6.41 |  |
| CCn1cc(S(=O)(=O)NC(=O)c2ccc(-n3ccc(OCC4(C(F)(F)F)CC4)n3)nc2N2C[C@@H](C)CC2(C)C)cn1 [Compound 7, N-(1-ethylpyrazol-4-yl)sulfonyl-6-[3-[[1-(trifluoromethyl)cyclopropyl]methoxy]pyrazol-1-yl]-2-[(4S)-2,2,4-trimethylpyrrolidin-1-yl]pyridine-3-carboxamide] | 4% | 6.19 | 3.1 ×10⁻⁶ cm/s |
| Cc1nn(C)cc1S(=O)(=O)NC(=O)c1ccc(-n2ccc(OCC3(C(F)(F)F)CCC3)n2)nc1N1C[C@@H](C)CC1(C)C [Compound 19, N-(1,3-dimethylpyrazol-4-yl)sulfonyl-6-[3-[[1-(trifluoromethyl)cyclobutyl]methoxy]pyrazol-1-yl]-2-[(4S)-2,2,4-trimethylpyrrolidin-1-yl]pyridine-3-carboxamide] | 1% | 7.05 | 8.8 ×10⁻⁶ cm/s |
| Cc1c(S(=O)(=O)NC(=O)c2ccc(-n3ccc(OCC4(C)CC4(F)F)n3)nc2N2C[C@@H](C)CC2(C)C)cnn1C (stereo partly drawn) [Compound 24, 6-[3-[(2,2-Difluoro-1-methyl-cyclopropyl)methoxy]pyrazol-1-yl]-N-(1,5-dimethylpyrazol-4-yl)sulfonyl-2-[(4S)-2,2,4-trimethylpyrrolidin-1-yl]pyridine-3-carboxamide] | 6% | 6.15 |  |
| Cc1c(S(=O)(=O)NC(=O)c2ccc(-n3ccc(OCC4CC45CC5)n3)nc2N2C[C@@H](C)CC2(C)C)cnn1C (stereo partly drawn) [Compound 26, N-(1,5-dimethylpyrazol-4-yl)sulfonyl-6-[3-(spiro[2.2]pentan-2-ylmethoxy)pyrazol-1-yl]-2-[(4S)-2,2,4-trimethylpyrrolidin-1-yl]pyridine-3-carboxamide] | 6% | 6.00 | 2.3 ×10⁻⁶ cm/s |
| Cc1nn(C)cc1S(=O)(=O)NC(=O)c1ccc(-n2ccc(OCC(C3CC3)C3CC3)n2)nc1N1C[C@@H](C)CC1(C)C [Compound 32, 6-[3-(2,2-dicyclopropylethoxy)pyrazol-1-yl]-N-(1,3-dimethylpyrazol-4-yl)sulfonyl-2-[(4S)-2,2,4-trimethylpyrrolidin-1-yl]pyridine-3-carboxamide] | 5% | 6.70 | 3.8 ×10⁻⁶ cm/s |
| Cc1c(S(=O)(=O)NC(=O)c2ccc(-n3ccc(OCC(C4CC4)C4CC4)n3)nc2N2C[C@@H](C)CC2(C)C)cnn1C [Compound 33, 6-[3-(2,2-dicyclopropylethoxy)pyrazol-1-yl]-N-(1,5-dimethylpyrazol-4-yl)sulfonyl-2-[(4S)-2,2,4-trimethylpyrrolidin-1-yl]pyridine-3-carboxamide] | 5% | 6.43 |  |
| Cc1nn(C)cc1S(=O)(=O)NC(=O)c1ccc(-n2ccc(OCC(C)(C)C(F)(F)F)n2)nc1N1C[C@H](C)CC1(C)C [Compound 37, N-(1,3-Dimethylpyrazol-4-yl)sulfonyl-6-[3-(3,3,3-trifluoro-2,2-dimethyl-propoxy)pyrazol-1-yl]-2-[(4R)-2,2,4-trimethylpyrrolidin-1-yl]pyridine-3-carboxamide] | 7% | 6.54 | 5.1 ×10⁻⁶ cm/s |
| Cc1nn(C)cc1S(=O)(=O)NC(=O)c1ccc(-n2ccc(OCC3(C(F)(F)F)CC3)n2)nc1N1CC(C)CC1(C)C (centres unmarked) [Compound 42, N-(1,3-dimethylpyrazol-4-yl)sulfonyl-6-[3-[[1-(trifluoromethyl)cyclopropyl]methoxy]pyrazol-1-yl]-2-(2,2,4-trimethylpyrrolidin-1-yl)pyridine-3-carboxamide] | 16% | 6.21 |  |
| Cc1nn(C)cc1S(=O)(=O)NC(=O)c1ccc(-n2ccc(OCC3(C(F)(F)F)CC3)n2)nc1N1CC(C)CC12CCC2 (centres unmarked) [Compound 43, N-(1,3-dimethylpyrazol-4-yl)sulfonyl-2-(7-methyl-5-azaspiro[3.4]octan-5-yl)-6-[3-[[1-(trifluoromethyl)cyclopropyl]methoxy]pyrazol-1-yl]pyridine-3-carboxamide] | 4% | 6.66 |  |
| Cc1nn(C)cc1S(=O)(=O)NC(=O)c1ccc(-n2ccc(OC(C3CC3)C3CC3)n2)nc1N1C[C@@H](C)CC1(C)C [Compound 48, 6-[3-(Dicyclopropylmethoxy)pyrazol-1-yl]-N-(1,3-dimethylpyrazol-4-yl)sulfonyl-2-[(4S)-2,2,4-trimethylpyrrolidin-1-yl]pyridine-3-carboxamide] | 8% | 6.00 | 4.6 ×10⁻⁶ cm/s |
| C[C@@H]1CN(c2nc(-n3ccc(OCCC4(C(F)(F)F)CC4)n3)ccc2C(=O)NS(=O)(=O)c2cn(C)nc2C(F)(F)F)C(C)(C)C1 [Compound 55, N-[1-methyl-3-(trifluoromethyl)pyrazol-4-yl]sulfonyl-6-[3-[2-[1-(trifluoromethyl)cyclopropyl]ethoxy]pyrazol-1-yl]-2-[(4S)-2,2,4-trimethylpyrrolidin-1-yl]pyridine-3-carboxamide] | 9% | 7.00 |  |
| Cc1nn(C)cc1S(=O)(=O)NC(=O)c1ccc(-n2ccc(OCCC3C4(CC4)C34CC4)n2)nc1N1C[C@@H](C)CC1(C)C [Compound 56, N-(1,3-Dimethylpyrazol-4-yl)sulfonyl-6-[3-(2-dispiro[2.0.2.1]heptan-7-ylethoxy)pyrazol-1-yl]-2-[(4S)-2,2,4-trimethylpyrrolidin-1-yl]pyridine-3-carboxamide] | 11% |  |  |
